Here are results for 2 compounds from publication PMC10673615, “Quercetin-1,2,3-Triazole Hybrids as Multifunctional Anti-Alzheimer’s Agents” (Molecules, 2023).

The inhibition is the drop in the measured response relative to a control, in per cent. Higher therefore signals a strong effect. What is called IC50 is the point on the concentration scale where inhibition reaches its midpoint. As usually defined, the Ki is the equilibrium dissociation constant of an inhibitor or competing ligand from its target. What is called LC50 is the concentration that kills 50% of the test population. For orientation: EC50 means the midpoint of the concentration-response curve. A high value points to lower potency in that assay.

For data set [1], the target named is T1, eeAChE (Electrophorus electricus, UniProt O42275).
T1 construct: catalogue number not given
Briefly: Ellman cholinesterase inhibitory assay, eeAChE screening. Format: biochemical. The note with it: compound 100 µM; substrate 3 mM. How it is done:
(§1) Firstly, the inhibitory activity of the quercetin-1,2,3-triazole hybrids I–IV was screened in vitro on eeAChE and eqBuChE at a concentration of 100 μM (these enzymes are considered as models of the human isoform). The ChE inhibitory activity of all compounds was evaluated using the method of Ellman.
(§2) The inhibitory activities of title compounds against commercially available cholinesterases (eeAChE) (Electrophorus electricus, Type V-S), eqBuChE (equine serum), were conducted using minor modifications of Ellman’s assay. Nine different concentrations ([…], 37.5, 75, 150, and 300 μM in H2O:DMSO (50:50)) of each test compound were used to determine the enzyme-inhibition activity. Briefly, 55 μL of 50 mM Tris-HCl buffer at pH 8, 25 μL of eqBuChE (0.03 U/mL), 20 μL of the test or standard compounds, and 125 μL of DTNB (0.8 mM) were incubated in 96-well plates at 37 °C for 15 min. Further, 25 μL of the substrate, BTCI (0.8 mM), was added, and the solution was incubated for additional 15 min. Finally, the absorbance was measured at 412 nm wavelength using a Microplate Spectrophotometry (TriStar® S LB 942 model instrument). The IC50 values were determined from the absorbance obtained for various concentrations of the test and the standard compounds. All determinations were performed in triplicate.
(§3) To determine the % of inhibition ([I] = 100 μM), the substrate concentration (acetylthiocholine iodide for AChE; S-butyrylthiocholine iodide for BuChE) was fixed at 3 mM.
(In general: Ellman's reagent forms a yellow product with free thiols.)

Data set [2] has as its target T2, eqBuChE (Equus caballus, UniProt P81908).
T2 construct: equine serum butyrylcholinesterase (eqBuChE); purchased Sigma-Aldrich (lyophilized powder, 10.9 U/mg); host or cells: equine serum
Description: Ellman cholinesterase inhibitory assay, eqBuChE (screening and IC50). Format: biochemical. As to conditions: for inhibition at 100 µM: compound 100 µM, substrate 3 mM; for IC50: concentration range 1.2-300 µM, BTCI 0.8 mM, read-out: IC50 values for eqBuChE. The protocol:
as §1, §2, §3

In data set [3] the target is T2, eqBuChE. Briefly: Kinetic study for the inhibition of eqBuChE (Lineweaver-Burk). As to conditions: for Inhibition type / Ki: Lineweaver-Burk; for Ki: read-out: Ki (inhibitory constant). Format: biochemical. The source says: The interaction with the active center of the enzyme thus seems to be favored by the presence of polar groups. Hybrid IIf presented the smaller Ki (Table 3), binding to the enzyme with the higher affinity, which can be relevant for pharmacologic applications in the future.
Lineweaver–Burk plot (1/V vs. 1/[BTCI]) was used for determining the inhibition constants (Ki’s) and the mechanism of action.

A short description of data set [4]: DPPH radical scavenging antioxidant assay. As to conditions: 100 μg/mL. The protocol: To assess the antioxidant activity of hybrids IVa–e, IIf and quercetin, the 2,2-diphenyl-1-[…] (DPPH) radical scavenging colorimetric method was used, which is one of the most widely used methods for determining antioxidant activity. In this method, antioxidants react with DPPH (which has a strong violet color) and convert it into yellow diphenylpicrylhydrazine. Compounds were assayed in the range of concentrations from 3 to 200 μg/mL. Ascorbic acid was used as positive control. […] Another piece of evidence is the similarity between the % inhibition values of hybrids IVa,b and IVd,e and quercetin.
The colorimetric DPPH assay was carried out as described in [33]. […] In brief, 30 μL of a test compound (in MeOH) was mixed with 200 μL of DPPH (100 μM in methanol) in a 96-well plate in triplicate. After 30 min incubation at room temperature in the absence of light, the absorbances were measured at 517 nm using Microplate Spectrophotometry (TriStar® S LB 942 model instrument). The free radical scavenging activity results are expressed as a percentage of DPPH inhibition according to the following formula:
% of Inhibition = 100[(A(Blank) − A(sample))/A(blank)], where A(blank) consists of methanol (30 μL) mixed with DPPH (200 μL) absorbance, and A(sample) is the absorbance value for the added sample concentration compound mixed with DPPH. Ascorbic acid was used as a positive control.
In general terms: Loss of DPPH colour is used to gauge radical scavenging.

The subject of data set [5] is MCF-7 cells. Description: in vitro. As to conditions: human, 2 h. The protocol:
(§4) Given the importance of oxidative stress-induced apoptosis of neuronal cells in AD, we present here a study to investigate the effect of quercetin-1,2,3-triazole hybrids on H2O2-induced oxidative damage in cultured MCF-7 cells, used as a human cell model. Viability was assessed with the WST-1 test in the absence and in the presence of an oxidative stressor (10^−4 M H2O2).
(§5) MCF-7 (Human breast adenocarcinoma (MERCK—# 86012803-DNA-5UG), Database Name: ECACC collection, Accession Numbers: 86012803) was the cell line elected as a cell injury model for the study of the potential protective effect of the butyrylcholinesterase inhibitors (hybrids) against hydrogen peroxide-induced oxidative stress. Cytotoxicity of the hybrids was also evaluated.
(§6) The compounds to be tested were firstly dissolved in dimethyl sulfoxide (DMSO) at a concentration of 4 × 10^−2 M. They were then diluted in cell growth media (EMEM) (supplemented with FBS 10%) with 0.25% DMSO to obtain solutions between 6.25 and 50.00 µM.
(§7) Eagle’s Minimum Essentia Medium (EMEM), including 10% fetal bovine serum (FBS), 100 IU/mL penicillin, and 100 μg/mL streptomycin, was used to culture MCF-7 cells at 37 °C in 5% CO2 atmosphere incubator with media replenished every 2 days. A total of 5 × 10^3 cells were cultured in 96-well plates and incubated for 72 h prior to stimulus application.
(§8) The culture medium was subsequently replaced with different final concentrations (6.25–50 μM) of the compounds to be tested. Negative controls were prepared, incubating cells in culture media.
(§9) Parallel experiments were performed for cytotoxicity assessment and for protective effect against hydrogen peroxide-induced oxidative stress evaluation. First, 10 μL of PBS was added in the designated wells; second, 10 μL of H2O2 (reaching a final concentration of 100 µM) was added. Following a 2 h incubation period at 37 °C in 5% CO2 atmosphere incubator, cellular viability was measured by adding WST-1 dehydrogenases substrate and incubating for 1 h, and the amount of formazan dye produced was evaluated by measuring the absorbance at 440 nm.

For data set [6], the system named is MCF-7 cells. Briefly: Protective assay against hydrogen peroxide-induced oxidative stress in MCF-7 cells. It counts as cell-based, Human. The note with it: 100 µM H2O2, 2 h. How it is done: as §4, §5, §8, §9
Data set [7] is described as follows: Artemia salina lethal toxicity assay. Format: in vivo. As to conditions: Artemia salina, in vivo, other: grown in the presence of the compound, Artemia salina nauplii. The protocol: (§10) Artemia salina was used for in vivo general toxicity assessment of the promising hybrids IVb, IVd, and IIf; the results are shown in Table 4 and Figure 7. K2Cr2O7 was used as a control. Hybrid IVd presented the lowest toxicity.
(§11) The ARTOXKIT M protocol was used. The percentage of dyed nauplii of Artemia salina, grown in the presence of variable concentrations of the inhibitor compounds, was measured to determine the LC50 values. A test with K2Cr2O7 was used for quality control.

The test system of data set [8] is Artemia salina. Briefly: Artemia salina lethal toxicity assay. Format: in vivo. The protocol:
as §10, §11

Data set [9] concerns REM-138 cell line (canine breast cancer). More on the design: method as in doi:10.1055/s-0040-1719928. The note with it: REM cells; 72 h incubation; cited from earlier work.
A short description of data set [10]: in vitro. As to conditions: human. How it is done: as §4, §5, §6, §7, §8, §9

T2 sequence (P81908 whole entry): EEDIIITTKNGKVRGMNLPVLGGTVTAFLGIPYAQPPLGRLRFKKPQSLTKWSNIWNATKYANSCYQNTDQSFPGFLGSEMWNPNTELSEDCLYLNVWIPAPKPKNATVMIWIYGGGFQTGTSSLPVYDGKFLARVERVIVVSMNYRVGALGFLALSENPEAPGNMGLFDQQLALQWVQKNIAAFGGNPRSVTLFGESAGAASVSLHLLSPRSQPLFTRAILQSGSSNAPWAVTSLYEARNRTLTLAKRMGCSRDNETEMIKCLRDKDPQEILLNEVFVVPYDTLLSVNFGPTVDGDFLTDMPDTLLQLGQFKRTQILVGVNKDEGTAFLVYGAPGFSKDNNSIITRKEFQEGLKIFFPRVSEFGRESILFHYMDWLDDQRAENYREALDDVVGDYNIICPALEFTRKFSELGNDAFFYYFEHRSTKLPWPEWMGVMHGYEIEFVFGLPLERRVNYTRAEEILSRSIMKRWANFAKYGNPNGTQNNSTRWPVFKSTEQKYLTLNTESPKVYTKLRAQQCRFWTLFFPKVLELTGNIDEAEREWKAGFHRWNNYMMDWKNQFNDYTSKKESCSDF
T1 sequence (O42275 24-633): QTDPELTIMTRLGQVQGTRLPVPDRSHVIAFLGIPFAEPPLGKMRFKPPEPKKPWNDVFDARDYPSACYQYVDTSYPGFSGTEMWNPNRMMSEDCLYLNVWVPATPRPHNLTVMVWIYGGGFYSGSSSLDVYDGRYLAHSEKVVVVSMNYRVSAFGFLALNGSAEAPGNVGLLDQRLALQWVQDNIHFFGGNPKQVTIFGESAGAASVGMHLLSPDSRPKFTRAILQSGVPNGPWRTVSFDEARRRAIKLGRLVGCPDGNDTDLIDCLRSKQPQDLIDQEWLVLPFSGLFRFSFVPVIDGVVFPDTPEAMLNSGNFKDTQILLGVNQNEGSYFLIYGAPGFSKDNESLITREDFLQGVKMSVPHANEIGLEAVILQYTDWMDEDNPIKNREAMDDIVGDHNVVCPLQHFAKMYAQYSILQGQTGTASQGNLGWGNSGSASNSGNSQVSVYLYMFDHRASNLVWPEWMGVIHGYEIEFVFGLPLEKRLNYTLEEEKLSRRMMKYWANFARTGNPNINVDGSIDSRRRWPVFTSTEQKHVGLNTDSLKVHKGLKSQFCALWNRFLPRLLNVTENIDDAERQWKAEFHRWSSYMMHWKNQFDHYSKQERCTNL

As for `O=c1c(OCCCCn2cc(C3CC3)nn2)c(-c2ccc(O)c(O)c2)oc2cc(O)cc(O)c12` [IVb, 3-(4-(4-Cyclopropyl-1H-1,2,3-triazol-1-yl)butoxy)-2-(3,4-dihydroxyphenyl)-5,7-dihydroxy-4H-chromen-4-one], the inhibition at 100 µM in [1] was 5.21%; in data set [2], 90.5%. For the same compound, the IC50 in data set [2] worked out at 32.4 µM. For the same compound, the Inhibition type entry in data set [3] was “mixed type (non-competitive)”. Moreover, the Ki in data set [3] turned out to be 30 µM. In addition, the Vmax app came to 7.5 U.mg^−1 in [3] (inhibitor 17.5 µM), 6.5 U.mg^−1 in data set [3] (inhibitor 35 µM) and 4.5 U.mg^−1 in data set [3] (inhibitor 70 µM). In data set [4], the DPPH antioxidant activity entry was “potent antioxidant activity”. For the same compound, the cytotoxic concentration in [5] is above 25 µM; in [9] it was above 10 µM. Further, the “cellular antioxidant protection against H2O2” value in [6] was “equally effective in the antioxidant protection”. The 50% lethal concentration (LC50) in data set [7] was 10 to 100 µM. Further, the concentrations without toxicity in [8] (Artemia salina) is at most 10 µM.
For `CC(C)(O)c1cn(CCCCOc2c(-c3ccc(O)c(O)c3)oc3cc(O)cc(O)c3c2=O)nn1` [IVd, 2-(3,4-Dihydroxyphenyl)-5,7-dihydroxy-3-(4-(4-(2-hydroxypropan-2-yl)-1H-1,2,3-triazol-1-yl)butoxy)-4H-chromen-4-one], the inhibition at 100 µM in [1] came to 3.65%; in data set [2] it was 56.6%. For the same compound, the IC50 in data set [2] turned out to be 39 µM. The Inhibition type entry in data set [3] is listed as “competitive inhibition”. The Ki in [3] is 36 µM. Besides, the Vmax app in data set [3] (inhibitor 17.5 µM) is on record as 9.6 U.mg^−1; in data set [3] (inhibitor 35 µM), 9.0 U.mg^−1. Besides, the DPPH antioxidant activity entry in [4] is given as “potent antioxidant activity”. The compound further gave a concentration giving a half-maximal response (EC50) at 2 h in data set [10] above 50 µM. The “cellular antioxidant protection against H2O2” value in data set [6] is on record as “equally effective in the antioxidant protection”. Moreover, the LC50 was above 100 µM in data set [7] and at least 100 µM in data set [8] (Artemia salina nauplii, read-out: LC50).
